Reference: PubChem BioAssay AID256 (DTP/NCI, 2004)
Inconclusive results and toxic doses are left out. The calls were made as follows: active = survival T/C of 150% or more; inactive = T/C below 125% in these data.

Tested on: CD2F1 mice, L1210 leukemia ip, survival T/C
Assay: NCI In Vivo Anticancer Drug Screen. Data for tumor model L1210 Leukemia (intraperitoneal) in CD2F1 (CDF1) mice
Details: endpoint: mean survival time, higher = longer survival
Outline: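 Antitumor effect is scored in animals hosting a serially transplanted tumor. Values compare compound-dosed animals against vehicle-only controls as a simple quotient.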

[1] = dose: 100.0 mg/kg/injection, schedule: Q04DX003 (ip), vehicle: saline with Tween-80
[2] = dose: 200.0 mg/kg/injection, schedule: Q04DX003 (ip), vehicle: saline with Tween-80
[3] = dose: 400.0 mg/kg/injection, schedule: Q04DX003 (ip), vehicle: saline with Tween-80
[4] = dose: 100.0 mg/kg/injection, schedule: Q01DX009 (ip), vehicle: saline with Tween-80

Measured: T/C

COc1cccc2c1C(=O)c1c(O)c3c(c(O)c1C2=O)C[C@@](O)(/C(C)=N/NC(=O)c1ccc(Cl)cc1)C[C@@H]3OC1CC(N)C(O)C(C)O1 (stereo partly specified)
inactive: dose: 0.5 mg/kg/injection, schedule: Q01DX009 (ip), vehicle: saline 96 % of control | dose: 0.5 mg/kg/injection, schedule: Q01DX009 (ip), vehicle: suspension in saline 110 % of control | dose: 1.0 mg/kg/injection, schedule: Q01DX009 (ip), vehicle: suspension in saline 115 % of control | dose: 2.0 mg/kg/injection, schedule: Q01DX009 (ip), vehicle: saline 122 % of control | dose: 2.0 mg/kg/injection, schedule: Q01DX009 (ip), vehicle: suspension in saline 118 % of control | dose: 16.0 mg/kg/injection, schedule: Q01DX009 (ip), vehicle: saline 108 % of control

CCOC(=O)Nc1cc2c(c(N)n1)N=C(CCc1ccccc1)CN2
inactive: dose: 25.0 mg/kg/injection, schedule: Q01DX001 (ip), vehicle: Klucel (hydroxypropylcellulose) (HPC) 107 % of control | dose: 50.0 mg/kg/injection, schedule: Q01DX001 (ip), vehicle: Klucel (hydroxypropylcellulose) (HPC) 114 % of control | dose: 200.0 mg/kg/injection, schedule: Q01DX001 (ip), vehicle: Klucel (hydroxypropylcellulose) (HPC) 116 % of control

CC(C)c1ccc(C(=O)C(O)c2ccc(C(C)C)cc2)cc1 (stereo unspecified)
inactive: [1] 102 % of control | [2] 102 % of control | [3] 95 % of control

Cc1ccc(NC(=O)/C=C/C(=O)O)cc1
inactive: [4] 105 % of control | dose: 200.0 mg/kg/injection, schedule: Q01DX009 (ip), vehicle: saline with Tween-80 107 % of control | dose: 400.0 mg/kg/injection, schedule: Q01DX009 (ip), vehicle: saline with Tween-80 103 % of control

Cc1ccc2snc(C(=O)O)c2c1[N+](=O)[O-]
inactive: [1] 98 % of control | [2] 104 % of control | [3] 103 % of control

CCCCCCCCCC1=NC(C)(C)CN1CC(C)O (stereo unspecified)
inactive: dose: 5.0 mg/kg/injection, schedule: Q01DX009 (ip), vehicle: saline with Tween-80 91 % of control | dose: 10.0 mg/kg/injection, schedule: Q01DX009 (ip), vehicle: saline with Tween-80 102 % of control | dose: 20.0 mg/kg/injection, schedule: Q01DX009 (ip), vehicle: saline with Tween-80 91 % of control

CC1(C)OC2C(C3N(c4ccccc4)CCN3c3ccccc3)OC(n3ccc(=O)[nH]c3=O)C2O1 (stereo unspecified)
inactive: dose: 12.5 mg/kg/injection, schedule: Q01DX005 (ip), vehicle: distilled water + Tween-80 97 % of control | dose: 25.0 mg/kg/injection, schedule: Q01DX005 (ip), vehicle: distilled water + Tween-80 94 % of control | dose: 50.0 mg/kg/injection, schedule: Q01DX005 (ip), vehicle: distilled water + Tween-80 94 % of control | dose: 100.0 mg/kg/injection, schedule: Q01DX005 (ip), vehicle: distilled water + Tween-80 91 % of control | dose: 200.0 mg/kg/injection, schedule: Q01DX005 (ip), vehicle: distilled water + Tween-80 96 % of control

BrCC[Se]c1ccccc1
inactive: dose: 3.12 mg/kg/injection, schedule: Q01DX009 (ip), vehicle: saline with Tween-80 105 % of control | dose: 6.25 mg/kg/injection, schedule: Q01DX009 (ip), vehicle: saline with Tween-80 111 % of control | dose: 12.5 mg/kg/injection, schedule: Q01DX009 (ip), vehicle: saline with Tween-80 102 % of control | dose: 25.0 mg/kg/injection, schedule: Q01DX009 (ip), vehicle: saline with Tween-80 115 % of control | dose: 50.0 mg/kg/injection, schedule: Q01DX009 (ip), vehicle: saline with Tween-80 107 % of control | [4] 104 % of control

Cc1ccc(C)c2c1CC/C(=C\c1ccccc1[N+](=O)[O-])C2=O
inactive: [1] 96 % of control | [2] 97 % of control | [3] 91 % of control

CCCCCCCCCCCCCCCCCCNC(=O)Nc1ccc(C)cc1C
inactive: dose: 100.0 mg/kg/injection, schedule: Q01DX009 (ip), vehicle: saline + alcohol 98 % of control | dose: 100.0 mg/kg/injection, schedule: Q04DX003 (ip), vehicle: saline + alcohol 89 % of control | dose: 200.0 mg/kg/injection, schedule: Q01DX009 (ip), vehicle: saline + alcohol 104 % of control | dose: 200.0 mg/kg/injection, schedule: Q04DX003 (ip), vehicle: saline + alcohol 100 % of control | dose: 400.0 mg/kg/injection, schedule: Q01DX009 (ip), vehicle: saline + alcohol 107 % of control | dose: 400.0 mg/kg/injection, schedule: Q04DX003 (ip), vehicle: saline + alcohol 89 % of control
